In paper PMC8185074, “Anchor extension: a structure-guided approach to design cyclic peptides targeting enzyme active sites” (Nature Communications, 2021):
Peptide text beside a SMILES is read from it.

Tests used:
Type in all cases: biochemical
[1] = molecular target: T1, HDAC2 (Homo sapiens, UniProt Q92769); assay: HDAC2 inhibition, full IC50 measurement (Reaction Biology; fluorogenic p53 peptide RHKK(Ac)AMC)
T1 construct: purchased Reaction Biology Corporation (assay run by the CRO)
How it was run: (§1)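 Deacetylation of 50 μM RHKK(Ac)AMC is measured after 1 h at 30 °C in pH 8.0 Tris buffer (1% DMSO, 1 mg/ml BSA). Developer ends the reaction; the post-plateau 360/460 nm signal is fitted to IC50, averaging replicate measurements.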

[2] = molecular target: T2, HDAC1 (Homo sapiens, UniProt Q13547); assay: HDAC1 inhibition, full IC50 measurement (Reaction Biology; fluorogenic p53 peptide RHKK(Ac)AMC); conditions: t1/t2 replicates
T2 construct: purchased Reaction Biology Corporation (assay run by the CRO)
T2 sequence (Q13547 whole entry): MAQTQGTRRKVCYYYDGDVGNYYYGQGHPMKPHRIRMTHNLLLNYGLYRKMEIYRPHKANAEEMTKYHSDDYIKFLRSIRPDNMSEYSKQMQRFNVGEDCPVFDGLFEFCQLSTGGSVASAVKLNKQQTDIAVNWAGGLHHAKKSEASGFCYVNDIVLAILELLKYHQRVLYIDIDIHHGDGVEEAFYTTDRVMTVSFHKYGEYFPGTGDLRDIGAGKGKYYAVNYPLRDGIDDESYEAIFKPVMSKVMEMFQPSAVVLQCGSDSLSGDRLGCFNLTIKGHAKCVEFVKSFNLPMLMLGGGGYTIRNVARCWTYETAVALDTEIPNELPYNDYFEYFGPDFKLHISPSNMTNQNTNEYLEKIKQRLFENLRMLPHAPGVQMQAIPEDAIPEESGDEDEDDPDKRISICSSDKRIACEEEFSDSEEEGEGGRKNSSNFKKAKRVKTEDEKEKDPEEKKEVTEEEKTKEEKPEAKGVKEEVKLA
How it was run: as §1

[3] = molecular target: T3, HDAC3 (Homo sapiens, UniProt O15379); assay: HDAC3 inhibition, full IC50 measurement (Reaction Biology; fluorogenic p53 peptide RHKK(Ac)AMC)
T3 construct: purchased Reaction Biology Corporation (assay run by the CRO)
T3 sequence (O15379 whole entry): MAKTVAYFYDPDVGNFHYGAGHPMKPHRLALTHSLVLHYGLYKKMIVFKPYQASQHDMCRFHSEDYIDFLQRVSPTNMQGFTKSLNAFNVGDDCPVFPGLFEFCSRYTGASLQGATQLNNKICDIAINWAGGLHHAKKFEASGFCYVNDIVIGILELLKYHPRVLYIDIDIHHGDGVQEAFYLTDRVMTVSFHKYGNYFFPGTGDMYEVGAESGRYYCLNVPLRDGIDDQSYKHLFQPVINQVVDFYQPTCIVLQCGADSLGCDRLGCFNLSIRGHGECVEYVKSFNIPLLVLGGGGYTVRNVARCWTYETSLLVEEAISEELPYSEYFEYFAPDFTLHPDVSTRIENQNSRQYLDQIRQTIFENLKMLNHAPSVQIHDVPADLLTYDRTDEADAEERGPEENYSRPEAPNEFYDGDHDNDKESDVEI
T3 sequence (Q9Y618 395-489 partner limits assumed): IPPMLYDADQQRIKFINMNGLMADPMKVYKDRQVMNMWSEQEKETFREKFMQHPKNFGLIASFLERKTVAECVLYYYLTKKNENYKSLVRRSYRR
How it was run: as §1

[4] = molecular target: T4, HDAC8 (Homo sapiens, UniProt Q9BY41); assay: HDAC8 inhibition, full IC50 measurement (Reaction Biology; fluorogenic p53 peptide RHKK(Ac)AMC); conditions: t1/t2 replicates
T4 construct: purchased Reaction Biology Corporation (assay run by the CRO)
T4 sequence (Q9BY41 1-377): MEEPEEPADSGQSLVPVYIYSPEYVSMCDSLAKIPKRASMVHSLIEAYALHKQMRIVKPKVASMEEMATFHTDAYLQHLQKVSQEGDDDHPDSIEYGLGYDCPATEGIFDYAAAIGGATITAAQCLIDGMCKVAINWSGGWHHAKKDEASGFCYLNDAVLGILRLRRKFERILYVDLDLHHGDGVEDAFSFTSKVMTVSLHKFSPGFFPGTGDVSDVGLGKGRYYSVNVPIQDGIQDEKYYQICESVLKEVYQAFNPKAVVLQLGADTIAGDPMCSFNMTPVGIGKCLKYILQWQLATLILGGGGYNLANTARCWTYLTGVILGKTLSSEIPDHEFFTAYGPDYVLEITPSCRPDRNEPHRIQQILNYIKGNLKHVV
How it was run: as §1

[5] = molecular target: T1, HDAC2; assay: Initial HDAC2 IC50 estimate (BPS Biosciences HDAC fluorogenic assay kit); conditions: Supplementary Dataset 2; read-out: HDAC2 activity (initial activity)
How it was run: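 Inhibition measured by kit-based fluorogenic HDAC activity assays, with each point in duplicate or triplicate. Values come from a full 1 µM–100 pM series (1:10 steps) or are range estimates from just 20 nM and 200 nM.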

[6] = peptide conc. 1.00E-05 M, listed as des4.1.0_t1
[7] = peptide conc. 1.00E-05 M, listed as des4.1.0_t2
[8] = peptide conc. 1.11E-06 M, listed as des4.1.0_t1
[9] = peptide conc. 1.11E-06 M, listed as des4.1.0_t2
[10] = peptide conc. 1.23E-07 M, listed as des4.1.0_t1
[11] = peptide conc. 1.23E-07 M, listed as des4.1.0_t2
[12] = peptide conc. 1.37E-08 M, listed as des4.1.0_t1
[13] = peptide conc. 1.37E-08 M, listed as des4.1.0_t2
[14] = peptide conc. 1.52E-09 M, listed as des4.1.0_t1
[15] = peptide conc. 1.52E-09 M, listed as des4.1.0_t2
[16] = peptide conc. 3.33E-06 M, listed as des4.1.0_t1
[17] = peptide conc. 3.33E-06 M, listed as des4.1.0_t2
[18] = peptide conc. 3.70E-07 M, listed as des4.1.0_t1
[19] = peptide conc. 3.70E-07 M, listed as des4.1.0_t2
[20] = peptide conc. 4.12E-08 M, listed as des4.1.0_t1
[21] = peptide conc. 4.12E-08 M, listed as des4.1.0_t2
[22] = peptide conc. 4.57E-09 M, listed as des4.1.0_t1
[23] = peptide conc. 4.57E-09 M, listed as des4.1.0_t2
[24] = peptide conc. 5.08E-10 M, listed as des4.1.0_t1
[25] = peptide conc. 5.08E-10 M, listed as des4.1.0_t2

T1 sequence (Q92769 whole entry): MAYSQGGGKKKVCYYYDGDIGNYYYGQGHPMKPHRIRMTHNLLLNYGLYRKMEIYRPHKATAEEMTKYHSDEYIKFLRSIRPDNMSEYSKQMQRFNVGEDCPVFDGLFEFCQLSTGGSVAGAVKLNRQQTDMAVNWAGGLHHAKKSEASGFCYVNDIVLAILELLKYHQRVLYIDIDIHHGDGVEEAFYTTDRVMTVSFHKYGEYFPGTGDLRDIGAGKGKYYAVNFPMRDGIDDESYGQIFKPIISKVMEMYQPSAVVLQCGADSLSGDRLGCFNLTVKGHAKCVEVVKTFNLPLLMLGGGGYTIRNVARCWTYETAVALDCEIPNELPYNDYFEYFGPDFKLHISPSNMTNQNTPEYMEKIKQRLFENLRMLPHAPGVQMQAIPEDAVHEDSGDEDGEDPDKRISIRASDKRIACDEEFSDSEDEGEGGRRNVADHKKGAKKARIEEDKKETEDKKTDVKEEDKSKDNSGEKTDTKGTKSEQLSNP

In the case of N=C(N)NCCC[C@@H]1NC(=O)[C@H](Cc2c[nH]c3ccccc23)NC(=O)[C@H](CC(=O)O)NC(=O)[C@@H](CO)NC(=O)[C@H](Cc2c[nH]c3ccccc23)NC(=O)[C@H](CCCCCS)NC(=O)[C@H](CCC(N)=O)NC1=O [des4.1.0, SHA-Trp-dSer-Asp-Trp-Arg-Gln] (HELM PEPTIDE1{D.W.R.Q.[O=C([C@H](CCCCCS)N[*:1])[*:2]].W.[dS]}$PEPTIDE1,PEPTIDE1,1:R1-7:R2$$$V2.0), the “HDAC2 activity raw data (signal)” value ([1]; Conc. 1.00E-05 M, t1) is reported as -10519, the “HDAC2 activity raw data (signal)” value ([1]; Conc. 1.00E-05 M, t2) is reported as -26565 and the “HDAC2 activity raw data (signal)” value ([1]; Conc. 1.11E-06 M, t1) is reported as 79842. For the same compound, the “HDAC2 activity raw data (signal)” value ([1]; Conc. 1.11E-06 M, t2) was 48499, the “HDAC2 activity raw data (signal)” value ([1]; Conc. 1.23E-07 M, t1) was 872533 and the “HDAC2 activity raw data (signal)” value ([1]; Conc. 1.23E-07 M, t2) was 734242. For the same compound, the “HDAC2 activity raw data (signal)” value ([1]; Conc. 1.37E-08 M, t1) was 1715554, the “HDAC2 activity raw data (signal)” value ([1]; Conc. 1.37E-08 M, t2) was 1674658 and the “HDAC2 activity raw data (signal)” value ([1]; Conc. 1.52E-09 M, t1) was 1955635. The “HDAC2 activity raw data (signal)” value ([1]; Conc. 1.52E-09 M, t2) was 1838943, the “HDAC2 activity raw data (signal)” value ([1]; Conc. 3.33E-06 M, t1) was 20013 and the “HDAC2 activity raw data (signal)” value ([1]; Conc. 3.33E-06 M, t2) was 16353. For the same compound, the “HDAC2 activity raw data (signal)” value ([1]; Conc. 3.70E-07 M, t1) was 220224, the “HDAC2 activity raw data (signal)” value ([1]; Conc. 3.70E-07 M, t2) was 182542 and the “HDAC2 activity raw data (signal)” value ([1]; Conc. 4.12E-08 M, t1) was 1421192. The “HDAC2 activity raw data (signal)” value ([1]; Conc. 4.12E-08 M, t2) was 1355422, the “HDAC2 activity raw data (signal)” value ([1]; Conc. 4.57E-09 M, t1) was 1969255 and the “HDAC2 activity raw data (signal)” value ([1]; Conc. 4.57E-09 M, t2) was 1793366. For the same compound, the “HDAC2 activity raw data (signal)” value ([1]; Conc. 5.08E-10 M, t1) was 1865278, the “HDAC2 activity raw data (signal)” value ([1]; Conc. 5.08E-10 M, t2) was 1807628 and the “HDAC1 activity raw data (signal)” value [2, 6] was 765. For the same compound, the “HDAC1 activity raw data (signal)” value [2, 7] was 43, the “HDAC1 activity raw data (signal)” value [2, 8] was 72647 and the “HDAC1 activity raw data (signal)” value [2, 9] was 40074. The “HDAC1 activity raw data (signal)” value [2, 10] was 531723, the “HDAC1 activity raw data (signal)” value [2, 11] was 406309 and the “HDAC1 activity raw data (signal)” value [2, 12] was 925044. The “HDAC1 activity raw data (signal)” value [2, 13] was 865901, the “HDAC1 activity raw data (signal)” value [2, 14] was 1099796 and the “HDAC1 activity raw data (signal)” value [2, 15] was 1072226. For the same compound, the “HDAC1 activity raw data (signal)” value [2, 16] was 17702, the “HDAC1 activity raw data (signal)” value [2, 17] was 11850 and the “HDAC1 activity raw data (signal)” value [2, 18] was 193534. For the same compound, the “HDAC1 activity raw data (signal)” value [2, 19] was 155666, the “HDAC1 activity raw data (signal)” value [2, 20] was 733473 and the “HDAC1 activity raw data (signal)” value [2, 21] was 658176. For the same compound, the “HDAC1 activity raw data (signal)” value [2, 22] was 1015864, the “HDAC1 activity raw data (signal)” value [2, 23] was 988230 and the “HDAC1 activity raw data (signal)” value [2, 24] was 1225387. For the same compound, the “HDAC1 activity raw data (signal)” value [2, 25] was 1041994, the “HDAC3 activity raw data (signal)” value ([3]; Conc. 1.00E-05 M, t1) was -1388 and the “HDAC3 activity raw data (signal)” value ([3]; Conc. 1.00E-05 M, t2) was 157. For the same compound, the “HDAC3 activity raw data (signal)” value ([3]; Conc. 1.11E-06 M, t1) was 49544, the “HDAC3 activity raw data (signal)” value ([3]; Conc. 1.11E-06 M, t2) was 53052 and the “HDAC3 activity raw data (signal)” value ([3]; Conc. 1.23E-07 M, t1) was 403506. For the same compound, the “HDAC3 activity raw data (signal)” value ([3]; Conc. 1.23E-07 M, t2) was 392664, the “HDAC3 activity raw data (signal)” value ([3]; Conc. 1.37E-08 M, t1) was 878874 and the “HDAC3 activity raw data (signal)” value ([3]; Conc. 1.37E-08 M, t2) was 905094. For the same compound, the “HDAC3 activity raw data (signal)” value ([3]; Conc. 1.52E-09 M, t1) was 1051534, the “HDAC3 activity raw data (signal)” value ([3]; Conc. 1.52E-09 M, t2) was 1009763 and the “HDAC3 activity raw data (signal)” value ([3]; Conc. 3.33E-06 M, t1) was 16525. The “HDAC3 activity raw data (signal)” value ([3]; Conc. 3.33E-06 M, t2) was 4898, the “HDAC3 activity raw data (signal)” value ([3]; Conc. 3.70E-07 M, t1) was 191695 and the “HDAC3 activity raw data (signal)” value ([3]; Conc. 3.70E-07 M, t2) was 162137. The “HDAC3 activity raw data (signal)” value ([3]; Conc. 4.12E-08 M, t1) was 681441, the “HDAC3 activity raw data (signal)” value ([3]; Conc. 4.12E-08 M, t2) was 656036 and the “HDAC3 activity raw data (signal)” value ([3]; Conc. 4.57E-09 M, t1) was 1007447. The “HDAC3 activity raw data (signal)” value ([3]; Conc. 4.57E-09 M, t2) was 1022661, the “HDAC3 activity raw data (signal)” value ([3]; Conc. 5.08E-10 M, t1) was 1094681 and the “HDAC3 activity raw data (signal)” value ([3]; Conc. 5.08E-10 M, t2) was 1129520. For the same compound, the “HDAC8 activity raw data (signal)” value [4, 6] was 100967, the “HDAC8 activity raw data (signal)” value [4, 7] was 38752 and the “HDAC8 activity raw data (signal)” value [4, 8] was 234716. The “HDAC8 activity raw data (signal)” value [4, 9] was 226734, the “HDAC8 activity raw data (signal)” value [4, 10] was 803512 and the “HDAC8 activity raw data (signal)” value [4, 11] was 713240. The “HDAC8 activity raw data (signal)” value [4, 12] was 943537, the “HDAC8 activity raw data (signal)” value [4, 13] was 964221 and the “HDAC8 activity raw data (signal)” value [4, 14] was 948817. For the same compound, the “HDAC8 activity raw data (signal)” value [4, 15] was 953073, the “HDAC8 activity raw data (signal)” value [4, 16] was 100659 and the “HDAC8 activity raw data (signal)” value [4, 17] was 171679. For the same compound, the “HDAC8 activity raw data (signal)” value [4, 18] was 597298, the “HDAC8 activity raw data (signal)” value [4, 19] was 553055 and the “HDAC8 activity raw data (signal)” value [4, 20] was 940975. For the same compound, the “HDAC8 activity raw data (signal)” value [4, 21] was 825924, the “HDAC8 activity raw data (signal)” value [4, 22] was 958670 and the “HDAC8 activity raw data (signal)” value [4, 23] was 869070. The “HDAC8 activity raw data (signal)” value [4, 24] was 1026116, the “HDAC8 activity raw data (signal)” value [4, 25] was 927553 and the IC50 [5] was 100 nM.
